Source: patent EP4737454A1, “GLP-1 RECEPTOR AGONIST, AND PREPARATION METHOD THEREFOR AND USE THEREOF” (Wayne Biotechnology Co., Ltd., priority 2023, dated 2025)

Target: Human GLP-1R (Homo sapiens, UniProt P43220)
Experiment: cAMP level determination in human GLP-1R stably transfected HEK293T cells (HTRF cAMP kit)
Format: cell-based
Conditions: 37°C 30 min
Procedure: Human GLP-1R HEK293T stably transfected cells were digested with trypsin, terminated with DMEM total (without p/s), centrifuged and washed twice with 1X Stimulation buffer, then resuspended in 1X stimulation buffer and counted. The cells were then prepared as a 1 Million/mL cell suspension in stimulation buffer. Compound powder was first prepared as a 10 mM stock solution in DMSO, then diluted to 2 mM with DMSO, and further prepared as 2X compound in 1X stimulation buffer (Cisbio kit buffer with freshly added IBMX at a final concentration of 0.5 mM). The top dose final concentration was 2000 nM, with a final DMSO concentration of 0.2%, diluted in a 1:3 gradient for 11 gradients.
According to the layout, 5 µl of compound was added to each well; Min wells contained 100 nM GLP-1, and Max wells contained 0.2% DMSO in 1X stimulation buffer. 5 µl of cell suspension was added to each well, centrifuged at 300 rpm at room temperature for 1 min, then incubated at 37°C for 30 min. 2X cAMP standards were prepared in 1X Stimulation buffer, with a top final concentration of 2.8 µM, diluted in a 1:3 gradient for 12 doses. According to the layout, 10 µl was added to each well. Finally, d2 and antibody were diluted 20-fold in 1X Detection buffer (Cisbio kit buffer), and 5 µl of each was added to each well according to the layout. After centrifugation at 300 rpm at room temperature for 1 min, the plate was incubated at room temperature for 2 hr.
Stimulation% was calculated based on Min and Max readings (665nm/615nm ratio) using the formula: 100*(ratio Max well - ratio test well)/(ratio Max well - ratio Min well). The cAMP concentration in each test well was derived from the cAMP standard curve, and the data was analyzed using GraphPad Prism 9 to plot four-parameter fit curves and calculate EC50 values using the formula: Y=Bottom + (Top-Bottom)/(1+10^((LogEC50-X)*HillSlope)). Table 1: cAMP Level Determination in Human GLP-1R Stably Transfected HEK293T Cells

Human GLP-1R, sequence (P43220 24-463): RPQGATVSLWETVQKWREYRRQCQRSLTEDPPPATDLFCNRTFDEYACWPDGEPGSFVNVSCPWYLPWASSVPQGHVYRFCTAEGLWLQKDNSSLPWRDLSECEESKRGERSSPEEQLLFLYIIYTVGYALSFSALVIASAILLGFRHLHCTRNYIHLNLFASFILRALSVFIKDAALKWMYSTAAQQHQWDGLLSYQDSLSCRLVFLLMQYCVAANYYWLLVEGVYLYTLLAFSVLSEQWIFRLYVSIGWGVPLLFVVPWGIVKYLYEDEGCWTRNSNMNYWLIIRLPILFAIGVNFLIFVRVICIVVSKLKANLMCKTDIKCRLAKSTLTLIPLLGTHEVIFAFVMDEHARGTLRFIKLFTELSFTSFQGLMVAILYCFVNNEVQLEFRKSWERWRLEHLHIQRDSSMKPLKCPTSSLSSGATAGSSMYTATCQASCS

SMILES: Cc1cc(-n2nc3c(c2-n2ccn(-c4c(F)cccc4C(=O)N(C)C4CC4)c2=O)[C@H](C)N(C(=O)c2cc4cc(C5CCOC(C)(C)C5)ccc4n2[C@@]2(c4nc(=O)o[nH]4)C[C@@H]2C)CC3)cc(C)c1F (stereo partly shown) [Compound 40]
- EC50: 155 nM

SMILES: Cc1cc(-n2nc3c(c2-n2ccn(-c4ccc(N(C)C(=O)C5CC5)c(F)c4)c2=O)[C@H](C)N(C(=O)c2cc4cc([C@@H]5CCOC(C)(C)C5)ccc4n2[C@@]2(c4noc(=O)[nH]4)C[C@@H]2C)CC3)cc(C)c1F [Compound 63a]
- EC50: 146 nM

SMILES: Cc1cc(-n2nc3c(c2-n2ccn(-c4cnc(C(=O)N(C)C5CC5)nc4)c2=O)[C@H](C)N(C(=O)c2cc4cc(C5CCOC(C)(C)C5)ccc4n2[C@@]2(c4nc(=O)o[nH]4)C[C@@H]2C)CC3)cc(C)c1F (stereo partly shown) [Compound 32]
- EC50: 79.7 nM

SMILES: Cc1cc(-n2nc3c(c2-n2ccn(-c4ccc(N(C)C(=O)C5CC5)c(Cl)c4F)c2=O)[C@H](C)N(C(=O)c2cc4cc([C@H]5CCOC(C)(C)C5)ccc4n2[C@@]2(c4nc(=O)o[nH]4)C[C@@H]2C)CC3)cc(C)c1F [Compound 73]
- EC50: 6.25 nM

SMILES: Cc1cc(-n2nc3c(c2-n2ccn(-c4ccc(C(=O)N(C)C5CC5)cc4C#N)c2=O)[C@H](C)N(C(=O)c2cc4cc(C5CCOC(C)(C)C5)ccc4n2[C@@]2(c4nc(=O)o[nH]4)C[C@@H]2C)CC3)cc(C)c1F (stereo partly shown) [Compound 36]
- EC50: 67.8 nM

SMILES: Cc1cc(-n2nc3c(c2-n2ccn(-c4ccc5c(c4)S(=O)(=O)CCC5)c2=O)[C@H](C)N(C(=O)c2cc4cc(C5CCOC(C)(C)C5)ccc4n2[C@@]2(c4nc(=O)o[nH]4)C[C@@H]2C)CC3)cc(C)c1F (stereo partly shown) [Compound 59]
- EC50: 15 nM

SMILES: Cc1cc(-n2nc3c(c2-n2ccn(-c4ccc(C(=O)N(C)C5CC5)c(C(F)(F)F)c4)c2=O)[C@H](C)N(C(=O)c2cc4cc([C@H]5CCOC(C)(C)C5)ccc4n2[C@@]2(c4nc(=O)o[nH]4)C[C@@H]2C)CC3)cc(C)c1F [Compound 6]
- EC50: 5.16 nM

SMILES: Cc1cc(-n2nc3c(c2-n2ccn(-c4ccc(C(=O)N(C)C5CC5)c(C)c4F)c2=O)[C@H](C)N(C(=O)c2cc4cc([C@H]5CCOC(C)(C)C5)ccc4n2[C@@]2(c4nc(=O)o[nH]4)C[C@@H]2C)CC3)cc(C)c1F [Compound 17]
- EC50: 8.97 nM

SMILES: Cc1cc(-n2nc3c(c2-n2ccn(-c4cccc(C#N)c4)c2=O)[C@H](C)N(C(=O)c2cc4cc(C5CCOC(C)(C)C5)ccc4n2[C@@]2(c4nc(=O)o[nH]4)C[C@@H]2C)CC3)cc(C)c1F (stereo partly shown) [Compound 80]
- EC50: 11.5 nM

SMILES: Cc1cc(-n2nc3c(c2-n2ccn(-c4ccc5c(c4)S(=O)(=O)CC5)c2=O)[C@H](C)N(C(=O)c2cc4cc(C5CCOC(C)(C)C5)ccc4n2[C@@]2(c4nc(=O)o[nH]4)C[C@@H]2C)CC3)cc(C)c1F (stereo partly shown) [Compound 57]
- EC50: 15.8 nM

SMILES: Cc1cc(-n2nc3c(c2-n2ccn(-c4ccc5c(c4)C=CS5(=O)=O)c2=O)[C@H](C)N(C(=O)c2cc4cc([C@@H]5CCOC(C)(C)C5)ccc4n2[C@@]2(c4noc(=O)[nH]4)C[C@@H]2C)CC3)cc(C)c1F [Compound 62a]
- EC50: 223 nM

SMILES: Cc1cc(-n2nc3c(c2-n2ccn(-c4ccc(N(C)C(=O)C5(C)CC5)c(F)c4)c2=O)[C@H](C)N(C(=O)c2cc4cc([C@H]5CCOC(C)(C)C5)ccc4n2[C@@]2(c4nc(=O)o[nH]4)C[C@@H]2C)CC3)cc(C)c1F [Compound 71]
- EC50: 4.01 nM

SMILES: Cc1cc(-n2nc3c(c2-n2ccn(-c4ccc(C(=O)N(C)C5CCC5)cc4)c2=O)[C@H](C)N(C(=O)c2cc4cc(C5CCOC(C)(C)C5)ccc4n2[C@@]2(c4nc(=O)o[nH]4)C[C@@H]2C)CC3)cc(C)c1F (stereo partly shown) [Compound 21]
- EC50: 14.4 nM

SMILES: Cc1cc(-n2nc3c(c2-n2ccn(-c4ccc(N(C)C(=O)C5CC5)cc4F)c2=O)[C@H](C)N(C(=O)c2cc4cc([C@H]5CCOC(C)(C)C5)ccc4n2[C@@]2(c4nc(=O)o[nH]4)C[C@@H]2C)CC3)cc(C)c1F [Compound 76]
- EC50: 8.18 nM

SMILES: Cc1cc(-n2nc3c(c2-n2ccn(-c4ccc(C(=O)N5CCCC5)cc4)c2=O)[C@H](C)N(C(=O)c2cc4cc(C5CCOC(C)(C)C5)ccc4n2[C@@]2(c4nc(=O)o[nH]4)C[C@@H]2C)CC3)cc(C)c1F (stereo partly shown) [Compound 22]
- EC50: 50.7 nM

SMILES: Cc1cc(-n2nc3c(c2-n2ccn(-c4ccc(C#N)c(OC(F)F)c4)c2=O)[C@H](C)N(C(=O)c2cc4cc(C5CCOC(C)(C)C5)ccc4n2[C@@]2(c4nc(=O)o[nH]4)C[C@@H]2C)CC3)cc(C)c1F (stereo partly shown) [Compound 95]
- EC50: 17.6 nM

SMILES: Cc1cc(-n2nc3c(c2-n2ccn(-c4ccc(C#N)c(OC(F)(F)F)c4)c2=O)[C@H](C)N(C(=O)c2cc4cc(C5CCOC(C)(C)C5)ccc4n2[C@@]2(c4nc(=O)o[nH]4)C[C@@H]2C)CC3)cc(C)c1F (stereo partly shown) [Compound 78]
- EC50: 20.3 nM

SMILES: Cc1cc(-n2nc3c(c2-n2ccn(-c4ccc(C(F)(F)F)c(C#N)c4)c2=O)[C@H](C)N(C(=O)c2cc4cc(C5CCOC(C)(C)C5)ccc4n2[C@@]2(c4nc(=O)o[nH]4)C[C@@H]2C)CC3)cc(C)c1F (stereo partly shown) [Compound 84]
- EC50: 9.87 nM

SMILES: Cc1cc(-n2nc3c(c2-n2ccn(-c4ccc5c(c4)C=CS5(=O)=O)c2=O)[C@H](C)N(C(=O)c2cc4cc(C5CCOC(C)(C)C5)ccc4n2[C@@]2(c4noc(=O)[nH]4)C[C@@H]2C)CC3)cc(C)c1F (stereo partly shown) [Compound 62]
- EC50: 13.5 nM

SMILES: Cc1cc(-n2nc3c(c2-n2ccn(-c4ccc(C#N)c(C(F)(F)F)c4)c2=O)[C@H](C)N(C(=O)c2cc4cc(C5CCOC(C)(C)C5)ccc4n2[C@@]2(c4nc(=O)o[nH]4)C[C@@H]2C)CC3)cc(C)c1F (stereo partly shown) [Compound 86]
- EC50: 13.8 nM

SMILES: Cc1cc(-n2nc3c(c2-n2ccn(-c4ccc(C(=O)N(C(C)C)C5CC5)cc4)c2=O)[C@H](C)N(C(=O)c2cc4cc(C5CCOC(C)(C)C5)ccc4n2[C@@]2(c4nc(=O)o[nH]4)C[C@@H]2C)CC3)cc(C)c1F (stereo partly shown) [Compound 25]
- EC50: 11.8 nM

SMILES: Cc1cc(-n2nc3c(c2-n2ccn(-c4ccc(N(C)C(=O)C5CC5)c(F)c4)c2=O)[C@H](C)N(C(=O)c2cc4cc([C@H]5CCOC(C)(C)C5)ccc4n2[C@@]2(c4noc(=O)[nH]4)C[C@@H]2C)CC3)cc(C)c1F [Compound 63b]
- EC50: 6.4 nM

SMILES: C[C@H]1c2c(nn(-c3ccc(F)c(C4CC4(F)F)c3)c2-n2ccn(-c3ccc4c(cnn4C)c3F)c2=O)CCN1C(=O)c1cc2cc(C3CCOC(C)(C)C3)ccc2n1[C@@]1(c2nc(=O)o[nH]2)C[C@@H]1C (stereo partly shown) [Compound 2]
- EC50: 56.5 nM

SMILES: Cc1cc(-n2nc3c(c2-n2ccn(-c4cccc(C(=O)N(C)C5CC5)c4)c2=O)[C@H](C)N(C(=O)c2cc4cc(C5CCOC(C)(C)C5)ccc4n2[C@@]2(c4nc(=O)o[nH]4)C[C@@H]2C)CC3)cc(C)c1F (stereo partly shown) [Compound 45]
- EC50: 41 nM

SMILES: Cc1cc(-n2nc3c(c2-n2ccn(-c4ccc(C(=O)N(C)C5CC5)c(C(F)(F)F)c4F)c2=O)[C@H](C)N(C(=O)c2cc4cc([C@H]5CCOC(C)(C)C5)ccc4n2[C@@]2(c4nc(=O)o[nH]4)C[C@@H]2C)CC3)cc(C)c1F [Compound 14]
- EC50: 5.61 nM

SMILES: Cc1cc(-n2ccn(-c3c4c(nn3-c3cc(C)c(F)c(C)c3)CCN(C(=O)c3cc5cc([C@H]6CCOC(C)(C)C6)ccc5n3[C@@]3(c5nc(=O)o[nH]5)C[C@@H]3C)[C@H]4C)c2=O)ccc1C(=O)N(C)C1CC1 [Compound 50]
- EC50: 11.6 nM

SMILES: Cc1cc(-n2nc3c(c2-n2ccn(-c4ccc(N(C)C5CC5)c(Cl)c4)c2=O)[C@H](C)N(C(=O)c2cc4cc([C@H]5CCOC(C)(C)C5)ccc4n2[C@@]2(c4noc(=O)[nH]4)C[C@@H]2C)CC3)cc(C)c1F [Compound 67b]
- EC50: 11.2 nM

SMILES: Cc1cc(-n2nc3c(c2-n2ccn(-c4ccc(C(=O)N5CCC5)c(F)c4)c2=O)[C@H](C)N(C(=O)c2cc4cc(C5CCOC(C)(C)C5)ccc4n2[C@@]2(c4nc(=O)o[nH]4)C[C@@H]2C)CC3)cc(C)c1F (stereo partly shown) [Compound 53]
- EC50: 25.5 nM

SMILES: CCc1cc(-n2ccn(-c3c4c(nn3-c3cc(C)c(F)c(C)c3)CCN(C(=O)c3cc5cc([C@H]6CCOC(C)(C)C6)ccc5n3[C@@]3(c5nc(=O)o[nH]5)C[C@@H]3C)[C@H]4C)c2=O)ccc1C(=O)N(C)C1CC1 [Compound 8]
- EC50: 4.75 nM

SMILES: Cc1cc(-n2nc3c(c2-n2ccn(-c4ccc5c(c4)CCCS5(=O)=O)c2=O)[C@H](C)N(C(=O)c2cc4cc(C5CCOC(C)(C)C5)ccc4n2[C@@]2(c4nc(=O)o[nH]4)C[C@@H]2C)CC3)cc(C)c1F (stereo partly shown) [Compound 58]
- EC50: 9.93 nM

SMILES: Cc1cc(-n2nc3c(c2-n2ccn(-c4ccc(C(=O)N(C)CC#N)cc4)c2=O)[C@H](C)N(C(=O)c2cc4cc(C5CCOC(C)(C)C5)ccc4n2[C@@]2(c4nc(=O)o[nH]4)C[C@@H]2C)CC3)cc(C)c1F (stereo partly shown) [Compound 44]
- EC50: 16.9 nM

SMILES: Cc1cc(-n2nc3c(c2-n2ccn(-c4ccc(OC(F)(F)F)c(C#N)c4)c2=O)[C@H](C)N(C(=O)c2cc4cc(C5CCOC(C)(C)C5)ccc4n2[C@@]2(c4nc(=O)o[nH]4)C[C@@H]2C)CC3)cc(C)c1F (stereo partly shown) [Compound 94]
- EC50: 21.6 nM

SMILES: C[C@H]1c2c(nn(-c3ccc(F)c(C4CC4)c3)c2-n2ccn(-c3ccc4c(cnn4C)c3F)c2=O)CCN1C(=O)c1cc2cc([C@H]3CCOC(C)(C)C3)ccc2n1[C@@]1(c2nc(=O)o[nH]2)C[C@@H]1C [Compound 1b]
- EC50: 17.5 nM

SMILES: Cc1cc(-n2nc3c(c2-n2ccn(-c4cc(F)cc(C#N)c4)c2=O)[C@H](C)N(C(=O)c2cc4cc(C5CCOC(C)(C)C5)ccc4n2[C@@]2(c4nc(=O)o[nH]4)C[C@@H]2C)CC3)cc(C)c1F (stereo partly shown) [Compound 92]
- EC50: 43.5 nM
